The values below come from patent US20250114346A1, “COMBINATION THERAPY USING A KRAS G12D INHIBITOR AND PD-1 INHIBITOR OR PD-L1 INHIBITOR” (Incyte Corporation, priority 2023, published 2025).

As a reminder, the inhibition is the drop in the measured response relative to a control, in per cent. A higher inhibition goes with strong suppression.

Values joined by “and” are separate entries in the source; they are usually repeats but may differ in a detail not shown here. Identical values can stand only once. Counter-ions that a name gives are not always drawn.

Assay [1] has as its system pERK (Phospho/Total ERK1/2) in CT-26 Clone 299 tumors. As to the kind of experiment: CT-26 Clone 299 pharmacodynamic model (pERK/total ERK in tumor lysates, MesoScale). The class given is in vivo, BALB/c-hPD1/hPDL1 mice. Here is the method: Female BALB/c-hPD1/hPDL1 mice (GemPharmatech, aged 8-10 weeks) were inoculated subcutaneously with 1.0×10^6 CT-26 Clone 299 cells suspended in phosphate buffered saline.
Oral dose administration was continuous for 5 days and 2 doses of Retifanlimab was given. On day 5, plasma and tumor samples were collected 4 hour post oral dose and 24 hours post IP dose following CO2 asphyxiation. Blood was collected into ethylenediaminetetraacetic acid (450480 Greiner Bio-One) tubes. The plasma was analyzed for drug levels. Two tumor fragments per individual were collected and weighed into Omni Bead Ruptor tubes (19-628 Omni International) and flash frozen. One tumor piece was lysed at a 1:5 ratio with homogenization solution (water:acetonitrile:formic acid, 95:5:0.1, v:v:v) for drug concentration analysis. The second tumor piece was then lysed at a 1:5 ratio with lysis buffer (64KL1 FD, Cisbio) with added protease inhibitors (A32957 and A32965, Thermo Fisher) and Blocking Reagent (64KB1AAC, Cisbio) on a Bead Ruptor Elite homogenizer (19-042E, Omni International, Kennesaw, GA). Tumor lysates were spun at 10,000 revolutions per minute for 10 minutes at 4° C. The protein concentration was determined using the Pierce™ BCA Protein Assay method according to the manufacturer's protocol (23227 Thermo Fisher Scientific). The lysates were diluted with additional lysis buffer to a final concentration of 0.4 μg/μL. Samples were analyzed using the MesoScale Discovery Platform on the Phospho/Total ERK1/2 Whole Cell Lysate Kit (K15107D, MesoScale Discovery, Rockville, MD). The pERK levels were first normalized to total ERK for each sample and then to the average pERK/tERK ratio of the vehicle control group.

Another assay concerns CT-26 Clone 299 cells. As to the kind of experiment: CT-26 Clone 299 syngeneic efficacy model. As to conditions: for monotherapy-treated mice succumbed to tumor growth: after treatment cessation, by day 43, Compound 1 at 100 mg/kg. The class given is in vivo, BALB/c-hPD1/hPDL1 mice. Here is the method:
BALB/c-hPD1/hPDL1 mice (GemPharmatech, strain #T004025) express human PDCD1 and CD274 (which encode the PD-1 and PD-L1 proteins, respectively) from the respective murine loci for those genes.
For survival (Kaplan-Meier) analysis: in the Compound 1 study, events were recorded when tumor volumes reached 1700 mm^3 or mice met criteria for humane endpoint (e.g. body weight loss, tumor ulceration, overall condition); in the Compound 3 study, events were recorded when tumor volumes reached 2000 mm^3, when mice met criteria for humane endpoint, or upon confirmed recurrence following a complete response (confirmed recurrence defined as a growing tumor […] following a complete response as defined above).

On to `Cc1nc2c(F)c(-c3cccc(Cl)c3Cl)c(CCC#N)cc2c2c1cc([C@H]1C[C@H]3C[C@H]3N1C(=O)C1CC1)n2[C@H]1[C@H]2CN[C@@H]1C2` (atropisomer, axis not shown; (Ra)) [Compound 1, 3-((Ra)-1-((1R,4R,5S)-2-azabicyclo[2.1.1]hexan-5-yl)-2-((1R,3R,5R)-2-(cyclopropanecarbonyl)-2-azabicyclo[3.1.0]hexan-3-yl)-7-(2,3-dichlorophenyl)-6-fluoro-4-methyl-1H-pyrrolo[3,2-c]quinolin-8-yl)propanenitrile monohydrochloride dihydrate], for which the “pERK/ERK Inhibition Relative to Vehicle Control (%, Mean)” value in assay [1] (100 mg/kg Cmpd 1 QD, 4 Hr, monohydrochloride dihydrate) is 84% and 56% and 85% and 89%.
Turning to `COC(=O)N1[C@@H]2C[C@@H]([C@@H](OC(F)F)C2)[C@@H]1c1cc2c(C)nc3c(F)c(-c4cccc(Cl)c4Cl)c(CCC#N)cc3c2n1[C@H]1[C@H]2CN[C@@H]1C2` (atropisomer, axis not shown; (Ra)) [Compound 3, Methyl (1R,3R,4R,5S)-3-((Ra)-1-((1R,4R,5S)-2-azabicyclo[2.1.1]hexan-5-yl)-8-(2-cyanoethyl)-7-(2,3-dichlorophenyl)-6-fluoro-4-methyl-1H-pyrrolo[3,2-c]quinolin-2-yl)-5-(difluoromethoxy)-2-azabicyclo[2.2.1]heptane-2-carboxylate], the “TGI (tumor growth inhibition)” value in the assay with CT-26 Clone 299 cells (Compound 3 10 mg/kg BID PO monotherapy, day 34, vs vehicle (p=0.1127)) amounted to 47%; in the assay on CT-26 Clone 299 cells (Compound 3 30 mg/kg BID PO monotherapy, day 34, vs vehicle (p=0.0411)), 92%.
On to `Cc1c(Nc2nc(C(F)F)nc3cc(CN4CC[C@@H](O)C4)cnc23)cccc1-c1cccc(-c2nc3cc(CN4CCC(C(=O)O)CC4)cc(C#N)c3o2)c1C` [Compound 2, (R)-1-((7-Cyano-2-(3′-(2-(difluoromethyl)-7-((3-hydroxypyrrolidin-1-yl)methyl)pyrido[3,2-d]pyrimidin-4-ylamino)-2,2′-dimethylbiphenyl-3-yl)benzo[d]oxazol-5-yl)methyl)piperidine-4-carboxylic acid], for which the “TGI (tumor growth inhibition)” value in the assay on CT-26 Clone 299 cells (Compound 2 25 mg/kg BID PO monotherapy, day 25) came out at 17%. In the assay on CT-26 Clone 299 cells (Compound 2 25 mg/kg BID monotherapy, Compound 3 study), the tumor growth result is on record as “did not meaningfully alter tumor growth”. The “monotherapy-treated mice succumbed to tumor growth” value in the assay with CT-26 Clone 299 cells is given as 100%. Further, in assay [1] (Mus musculus, CT26, Compound 2 25 mg/kg BID, 5 days, 4-hour post dose), the inhibition at 25 mg/kg is 10%.
As to “retifanlimab: humanized IgG4 monoclonal antibody that binds to human PD-1 [reference compound]”, the “monotherapy-treated mice succumbed to tumor growth” value with CT-26 Clone 299 cells was 90%. Also, the “TGI (tumor growth inhibition)” value in the assay on CT-26 Clone 299 cells (retifanlimab 10 mg/kg BIW IP monotherapy, day 25, Compound 1 study) is on record as 52%; in the assay with CT-26 Clone 299 cells (retifanlimab 10 mg/kg BIW monotherapy, day 34, Compound 3 study (p=0.0263)) it was 74%. In addition, the pERK inhibition in assay [1] (retifanlimab 10 mg/kg BIW, 24 hours post second dose) is 18%.
